15 molecules from patent publication US20250163047A1, “HETEROCYCLIC COMPOUNDS, COMPOSITIONS THEREOF, AND METHODS OF TREATMENT THEREWITH” (BeiGene, Ltd., priority 2022, published 2025) can be followed below.

One assay concerns the target T1, Cbl-b (aa36-427) (Homo sapiens, UniProt Q13191).
T1 construct: Cbl-b (aa36-427, in-house); made in house
Kind of assay: Co-expressed Cbl-b with BirA biochemical assay (CBLB/E2-Ub binding, HTRF). To be noted: 0.6 nM Cbl-b co-expressed with BirA, HTRF; read-out: co-express CBLB/E2-Ub-binding assay IC50. The text has this: (§1) The assay in the absence of a Cbl-b/Cbl inhibitor, where phosphorylation of Cbl-b/Cbl by the Src kinase allows UbcH5B-Ub to bind to Cbl-b/Cbl and brings the Bodipy-Fluorescein tagged ubiquitin in proximity to the streptavidin-terbium bound to the N-terminal biotinylated Avi-tagged Cbl-b/Cbl. […] The lack of a FRET signal indicates Cbl-b/Cbl is inhibited by the Cbl-b/Cbl inhibitor.
In general terms: In TR-FRET formats the signal depends on donor and acceptor labels being close together.

The target in a further assay is T2, Cbl (aa49-434) (Homo sapiens, UniProt P22681).
T2 construct: Cbl (aa49-434, in-house); made in house
T2 sequence (P22681 49-434): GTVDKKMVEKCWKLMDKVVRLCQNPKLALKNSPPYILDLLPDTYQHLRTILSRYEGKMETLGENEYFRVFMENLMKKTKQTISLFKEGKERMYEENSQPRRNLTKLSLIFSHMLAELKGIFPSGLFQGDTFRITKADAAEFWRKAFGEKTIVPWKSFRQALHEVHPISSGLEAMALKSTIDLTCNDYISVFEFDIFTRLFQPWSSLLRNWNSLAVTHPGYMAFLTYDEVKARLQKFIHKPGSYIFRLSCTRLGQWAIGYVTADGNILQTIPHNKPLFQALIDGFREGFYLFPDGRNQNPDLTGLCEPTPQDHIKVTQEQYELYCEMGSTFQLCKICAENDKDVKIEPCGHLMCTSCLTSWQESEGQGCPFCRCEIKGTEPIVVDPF
The assay can be described thus: Co-expressed Cbl with BirA biochemical assay (CBL/E2-Ub binding, HTRF). To be noted: 0.6 nM Cbl co-expressed with BirA, read-out: co-express CBL/E2-Ub-binding assay IC50.
Text: as §1

pIC50: −log10 of the molar value.

T1 sequence (Q13191 36-427): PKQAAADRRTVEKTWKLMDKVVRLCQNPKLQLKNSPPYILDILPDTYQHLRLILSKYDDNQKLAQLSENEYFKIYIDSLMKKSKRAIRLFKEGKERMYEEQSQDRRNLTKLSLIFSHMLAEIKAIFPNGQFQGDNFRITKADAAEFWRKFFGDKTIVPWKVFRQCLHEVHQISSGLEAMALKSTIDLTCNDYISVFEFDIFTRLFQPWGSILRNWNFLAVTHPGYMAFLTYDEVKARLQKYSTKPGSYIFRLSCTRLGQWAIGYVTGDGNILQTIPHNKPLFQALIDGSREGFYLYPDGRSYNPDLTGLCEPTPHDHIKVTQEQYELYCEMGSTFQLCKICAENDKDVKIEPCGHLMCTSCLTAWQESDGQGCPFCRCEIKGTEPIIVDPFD

`C[C@H](NCc1cc(C(=O)Nc2cccc([C@]3(Cc4nncn4C)C[C@@H](C#N)C3)c2)c2nccn2c1)C1CCCC1` [Compound A33, N-(3-((1r,3S)-3-cyano-1-((4-methyl-4H-1,2,4-triazol-3-yl)methyl)cyclobutyl)phenyl)-6-((((S)-1-cyclopentylethyl)amino)methyl)imidazo[1,2-a]pyridine-8-carboxamide]: the pIC50 on Cbl-b (aa36-427) is 8.82; on Cbl (aa49-434) it was 8.96.

On to `Cn1cnnc1[C@]1(c2cncc(NC(=O)c3cc(CNCC4CCC4)c4ccsc4n3)c2)C[C@H](C)C1` [Compound B15, 4-(((cyclobutylmethyl)amino)methyl)-N-(5-((1s, 3s)-3-methyl-1-(4-methyl-4H-1,2,4-triazol-3-yl)cyclobutyl)pyridin-3-yl)thieno[2,3-b]pyridine-6-carboxamide], for which the pIC50 at Cbl-b (aa36-427) was 9.05; at Cbl (aa49-434), 8.72.

For the molecule `C[C@@H]1CN(Cc2cc(C(=O)Nc3cccc([C@]4(c5nncn5C)C[C@@H](C)C4)c3)nc3c2NCC32CC2)CC[C@@H]1F` [Compound C50, 7′-(((3R,4S)-4-fluoro-3-methylpiperidin-1-yl)methyl)-N-(3-((1s,3S)-3-methyl-1-(4-methyl-4H-1,2,4-triazol-3-yl)cyclobutyl)phenyl)-1′,2′-dihydrospiro[cyclopropane-1,3′-pyrrolo[3,2-b]pyridine]-5′-carboxamide], the results for the pIC50 on Cbl-b (aa36-427) and at Cbl (aa49-434) were 9.15 and 9.10, respectively.

For `Cn1cnnc1[C@]1(c2cncc(NC(=O)c3cc(CNC4(C)CCC4)c4[nH]ccc4n3)c2)C[C@H](C)C1` [Compound B50, N-(5-((1s, 3s)-3-methyl-1-(4-methyl-4H-1,2,4-triazol-3-yl)cyclobutyl)pyridin-3-yl)-7-(((1-methylcyclobutyl)amino)methyl)-1H-pyrrolo[3,2-b]pyridine-5-carboxamide], the pIC50 was 8.82 on Cbl-b (aa36-427) and 8.03 at Cbl (aa49-434).

In the case of `C[C@H](NCc1cc(C(=O)Nc2cccc([C@]3(c4nncn4C)C[C@@H](CC#N)C3)c2)nc2c1NCC21CC1)C1CC1` [Compound C36, N-(3-((1s,3R)-3-(cyanomethyl)-1-(4-methyl-4H-1,2,4-triazol-3-yl)cyclobutyl)phenyl)-7′-((((S)-1-cyclopropylethyl)amino)methyl)-1′,2′-dihydrospiro[cyclopropane-1,3′-pyrrolo[3,2-b]pyridine]-5′-carboxamide], the pIC50 was 8.74 on Cbl-b (aa36-427) and 8.55 at Cbl (aa49-434).

In the case of `C[C@H](NCc1cc(C(=O)Nc2cncc([C@]3(c4nncn4C)C[C@@H](C)C3)c2)c2ncc(F)n2c1)C1CCC1` [Compound A50, 6-({[(1S)-1-cyclobutylethyl]amino}methyl)-3-fluoro-N-{5-[(1r, 3s)-3-methyl-1-(4-methyl-1,2,4-triazol-3-yl)cyclobutyl]pyridin-3-yl}imidazo[1,2-a]pyridine-8-carboxamide], the pIC50 at Cbl-b (aa36-427) is 9.05; on Cbl (aa49-434) it was 8.96.

Take `Cn1cnnc1C[C@]1(c2cccc(NC(=O)c3cc(CNCC4(C)CCCC4)cn4ccnc34)c2)C[C@H](C#N)C1` [Compound A24, N-(3-((1r, 3r)-3-cyano-1-((4-methyl-4H-1,2,4-triazol-3-yl)methyl)cyclobutyl)phenyl)-6-((((1-methylcyclopentyl)methyl)amino)methyl)imidazo[1,2-a]pyridine-8-carboxamide]: the figures for the pIC50 on Cbl-b (aa36-427) and at Cbl (aa49-434) were 8.54 and 8.07, respectively.

On to `CC(C)CNCc1cc(C(=O)Nc2cncc([C@]3(c4nncn4C)C[C@@H](C)C3)c2)nc2cc[nH]c12` [Compound B2, 7-((isobutylamino)methyl)-N-(5-((1s, 3s)-3-methyl-1-(4-methyl-4H-1,2,4-triazol-3-yl)cyclobutyl)pyridin-3-yl)-1H-pyrrolo[3,2-b]pyridine-5-carboxamide], for which the figures for the pIC50 on Cbl-b (aa36-427) and at Cbl (aa49-434) were 8.74 and 8.33, respectively.

For the molecule `Cn1cnnc1[C@]1(c2cccc(NC(=O)c3cc(CNCC4CCC4)c4c(n3)C(C)(C)CN4)c2)C[C@H](CC#N)C1` [Compound C30, N-(3-((1s, 3s)-3-(cyanomethyl)-1-(4-methyl-4H-1,2,4-triazol-3-yl)cyclobutyl)phenyl)-7-(((cyclobutylmethyl)amino)methyl)-3,3-dimethyl-2,3-dihydro-1H-pyrrolo[3,2-b]pyridine-5-carboxamide], the pIC50 on Cbl-b (aa36-427) is 8.85; on Cbl (aa49-434), 8.48.

For the molecule `Cn1cnnc1[C@]1(c2cccc(NC(=O)c3cc(CNCC4(F)CCC4)cn4ccnc34)c2)C[C@H](CC#N)C1` [Compound A37, N-(3-((1s, 3s)-3-(cyanomethyl)-1-(4-methyl-4H-1,2,4-triazol-3-yl)cyclobutyl)phenyl)-6-((((1-fluorocyclobutyl)methyl)amino)methyl)imidazo[1,2-a]pyridine-8-carboxamide], the figures for the pIC50 on Cbl-b (aa36-427) and at Cbl (aa49-434) were 9.10 and 8.32, respectively.

As for `CC(C)CNCc1cc(C(=O)Nc2cncc([C@]3(c4nncn4C)C[C@@H](C)C3)c2)c2nccn2c1` [Compound A78, 6-((isobutylamino)methyl)-N-(5-((1s, 3s)-3-methyl-1-(4-methyl-4H-1,2,4-triazol-3-yl)cyclobutyl)pyridin-3-yl)imidazo[1,2-a]pyridine-8-carboxamide], the pIC50 on Cbl-b (aa36-427) was 8.92; at Cbl (aa49-434) it was 8.64.

Consider `C[C@H]1CCCN(Cc2cc(C(=O)Nc3cccc([C@]4(Cc5nncn5C)C[C@@H](C#N)C4)c3)nc3cc[nH]c23)C1` [Compound B7, N-(3-((1r,3S)-3-cyano-1-((4-methyl-4H-1,2,4-triazol-3-yl)methyl)cyclobutyl)phenyl)-7-(((S)-3-methylpiperidin-1-yl)methyl)-1H-pyrrolo[3,2-b]pyridine-5-carboxamide], for which the figures for the pIC50 on Cbl-b (aa36-427) and at Cbl (aa49-434) were 8.72 and 8.19, respectively.

Consider `Cn1cnnc1[C@]1(c2cccc(NC(=O)c3cc(CNC4(C)CCC4)cn4ccnc34)c2)C[C@H](CC#N)C1` [Compound A36, N-(3-((1s, 3s)-3-(cyanomethyl)-1-(4-methyl-4H-1,2,4-triazol-3-yl)cyclobutyl)phenyl)-6-(((1-methylcyclobutyl)amino)methyl)imidazo[1,2-a]pyridine-8-carboxamide compound with N-(3-((1s, 3s)-3-(cyanomethyl)-1-(4-methyl-4H-1,2,4-triazol-3-yl)cyclobutyl)phenyl)-6-formylimidazo[1,2-a]pyridine-8-carboxamide (1:1)], for which the pIC50 at Cbl-b (aa36-427) was 8.77; at Cbl (aa49-434) it was 7.80.

As to `Cc1cnc2c(C(=O)Nc3cncc([C@]4(c5nncn5C)C[C@@H](C)C4)c3)cc(CN[C@H]3C[C@@H](C)C3)cn12` [Compound A86, 3-methyl-N-(5-((1s, 3s)-3-methyl-1-(4-methyl-4H-1,2,4-triazol-3-yl)cyclobutyl)pyridin-3-yl)-6-((((1s, 3s)-3-methylcyclobutyl)amino)methyl)imidazo[1,2-a]pyridine-8-carboxamide], the figures for the pIC50 at Cbl-b (aa36-427) and on Cbl (aa49-434) were 8.57 and 7.89, respectively.

On to `Cn1cnnc1[C@]1(c2cccc(NC(=O)c3cc(CNC4(C)CC4)cn4ncnc34)c2)C[C@H](C)C1` [Compound A87, N-(3-((1s, 3s)-3-methyl-1-(4-methyl-4H-1,2,4-triazol-3-yl)cyclobutyl)phenyl)-6-(((1-methylcyclopropyl)amino)methyl)-[1,2,4]triazolo[1,5-a]pyridine-8-carboxamide], for which the pIC50 at Cbl-b (aa36-427) is 8.82; on Cbl (aa49-434) it was 7.92.
